Laboratory results published in ChEMBL document CHEMBL1157129, “Synthesis and antiprotozoal activity of 2,5-bis[amidinoaryl]thiazoles” (Bioorg Med Chem, 2010).
The source made the active and inactive calls. The calls are words filed in the database; no cut-off is given here.

What was measured:
[1] = system: Trypanosoma brucei rhodesiense; experiment: Antitrypanosomal activity against Trypanosoma brucei rhodesiense STIB900 in infected mouse model assessed as host survival time at 25 mg/kg, po for 4 days; assay type: functional
[2] = system: Trypanosoma brucei rhodesiense; experiment: Antitrypanosomal activity against Trypanosoma brucei rhodesiense STIB900 in infected mouse model assessed as parasitemia cure in host at 25 mg/kg, po for 4 days; assay type: functional, organism-based; parameters: dose 25 mg/kg
L6 = experiment: Cytotoxicity against rat L6 cells; assay type: cell-based
[3] = system: Trypanosoma brucei rhodesiense; experiment: Antitrypanosomal activity against Trypanosoma brucei rhodesiense STIB900; assay type: functional, organism-based
[4] = system: Trypanosoma brucei rhodesiense; experiment: Antitrypanosomal activity against Trypanosoma brucei rhodesiense STIB900 in infected mouse model assessed as parasitemia cure in host at 5 mg/kg, ip for 4 days; assay type: functional, organism-based; parameters: dose 5 mg/kg
[5] = system: Trypanosoma brucei rhodesiense; experiment: Antitrypanosomal activity against Trypanosoma brucei rhodesiense STIB900 in infected mouse model assessed as host survival time at 5 mg/kg, ip for 4 days; assay type: functional; settings: route intraperitoneal
Plasmodium falciparum = experiment: Antiplasmodial activity against Plasmodium falciparum K1; assay type: functional, organism-based

Structure (SMILES)	Survival [1] [days]	Activity [2]	IC50 (L6) [nM]	IC50 [3] [nM]	Activity [4]	Survival [5] [days]	IC50 (Plasmodium falciparum) [nM]
Cl.Cl.N/C(=N\O)c1ccc(-c2ncc(-c3ccc(/C(N)=N\O)nc3)s2)cc1	36.8	inactive	–	–	–	–	–
Cl.Cl.N=C(N)c1ccc(-c2ncc(-c3ccc(C(=N)N)nc3)s2)cc1	–	–	40200	6	inactive	> 36	2.4
Cl.Cl.N/C(=N\O)c1ccc(-c2cnc(-c3ccc(/C(N)=N/O)nc3)s2)cc1	37.5	inactive	–	–	–	–	–
CO/N=C(\N)c1ccc(-c2ccc(-c3ccc(/C(N)=N/OC)cn3)o2)cc1	>60	–	–	–	Active	>60	–
CO/N=C(\N)c1ccc(-c2cnc(-c3ccc(/C(N)=N/OC)nc3)s2)cc1.Cl	42.8	inactive	–	–	–	–	–
Cl.Cl.N=C(N)c1ccc(-c2cnc(-c3ccc(C(=N)N)cn3)s2)cc1	–	–	102000	16	inactive	30.25	12.5
Cl.Cl.N/C(=N/O)c1ccc(-c2cnc(-c3ccc(/C(N)=N\O)cc3)s2)cc1	35	inactive	–	–	–	–	–
N=C(N)c1ccc(-c2ccc(-c3ccc(C(=N)N)cn3)o2)cc1	–	–	–	–	–	>54.5	–
Cl.Cl.N=C(N)c1ccc(-c2cnc(-c3ccc(C(=N)N)nc3)s2)cn1	–	–	1400	6	inactive	50.5	1.1
CO/N=C(\N)c1ccc(-c2cnc(-c3ccc(/C(N)=N\OC)cn3)s2)cc1.Cl.Cl	35	inactive	–	–	–	–	–
CONC(=N)c1ccc(-c2ccc(-c3ccc(C(=N)NOC)cc3)o2)cc1 [PAFURAMIDINE]	>60	Active	–	–	inactive	30	–
Cl.Cl.N=C(N)c1ccc(-c2ncc(-c3ccc(C(=N)N)nc3)s2)nc1	–	–	37400	38	inactive	29.25	13
Cl.Cl.N=C(N)c1ccc(-c2cnc(-c3ccc(C(=N)N)cc3)s2)cc1	–	–	–	4	–	>44.5	2
CO/N=C(\N)c1ccc(-c2cnc(-c3ccc(/C(N)=N\OC)cn3)s2)nc1.Cl.Cl	9	inactive	–	–	–	–	–
N=C(N)c1ccc(-c2ccc(-c3ccc(C(=N)N)cc3)o2)cc1 [FURAMIDINE]	–	–	6500	–	–	>46	–
Cl.Cl.N=C(N)c1ccc(-c2cnc(-c3ccc(C(=N)N)cn3)s2)nc1	–	–	> 195000	176	inactive	21.5	24.6
CO/N=C(\N)c1ccc(-c2cnc(-c3ccc(/C(N)=N\OC)nc3)s2)cn1.Cl.Cl	9	–	–	–	–	–	–
N=C(N)c1ccc(OCCCCCOc2ccc(C(=N)N)cc2)cc1 [PENTAMIDINE]	–	–	–	–	–	45	–
N=C(N)c1ccc(-c2ccc(-c3ccc(C(=N)N)cc3)s2)cc1	–	–	–	3	–	>48.75	13.8
Cl.Cl.N/C(=N\O)c1ccc(-c2cnc(-c3ccc(/C(N)=N\O)nc3)s2)cn1	24	–	–	–	–	–	–
Cl.Cl.N/C(=N\O)c1ccc(-c2cnc(-c3ccc(/C(N)=N\O)cn3)s2)nc1	9	inactive	–	–	–	–	–
CO/N=C(/N)c1ccc(-c2cnc(-c3ccc(/C(N)=N\OC)cc3)s2)cc1.Cl.Cl	41	inactive	–	–	–	–	–
Cl.Cl.N/C(=N\O)c1ccc(-c2cnc(-c3ccc(/C(N)=N\O)cn3)s2)cc1	24	inactive	–	–	–	–	–
Cl.Cl.N=C(N)c1ccc(-c2cnc(-c3ccc(C(=N)N)nc3)s2)cc1	–	–	1800	4	inactive	44.5	2.5
